14 compounds from patent US20230219965A1 (KSQ Therapeutics, Inc., priority 2020, published 2023) can be followed below.

SMILES strings stand for the structures. Like-named read-outs stand apart in the source and are kept apart here. Some results are limits rather than exact numbers.

Data set [1] concerns Ub-PCNA levels in the nucleus of ES2 cells (USP1 activity). Description: ES2 Ub-PCNA immunofluorescence (IF) assay. The format is cell-based. The conditions noted are these: Homo sapiens, ES-2; ES2 cells, 3 hours, Ub-PCNA immunofluorescence; read-out: USP1 IC50 (Ub-PCNA). Put shortly:
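AC50 derived from percent Ub-PCNA-positive nuclei, positivity set by a 95% cutoff from untreated-well intensities. Readout by imaging immunofluorescence (anti-Ub-PCNA, DAPI nuclear mask) after methanol fixation. Compound exposure: 3 h at 37° C, 0.3% DMSO final, on cells plated overnight.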

A short description of data set [2]: Liver microsomal metabolic stability, rat liver microsomes (RLM). The conditions noted are these: rat, liver microsomes, t1/2 (min) in RLM, 1 μM compound, 1 mg/mL microsomes, NADPH. On the technique in general: Microsomes from liver hold many membrane-bound enzymes, among them those of drug oxidation.
The nature of data set [3]: Liver microsomal metabolic stability, human liver microsomes (HLM). The conditions noted are these: human, liver microsomes.
Data set [4] can be described thus: ADME solubility determination in PBS at pH 2.0 and pH 7.4. The format is physicochemical. The conditions noted are these: phosphate buffered saline, 25 °C, thermodynamic from solid. Put shortly: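 Solubility was read by LC-MS/MS on centrifuged supernatants, calibrated to a known-concentration standard and corrected for dilution. Compound, dried down from 10 mM DMSO stock, was equilibrated 24 h at 25° C with shaking in PBS at pH 2.0 or pH 7.4.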

The target of data set [5] is USP1/UAF1 enzyme (Homo sapiens, UniProt O94782). Description: USP1/UAF1 deubiquitination assay (ubiquitin-rhodamine 110 substrate). The format is biochemical. The conditions noted are these: read-out: USP1 IC50 (Ub-Rho). Put shortly:
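Cleavage of 150 nM ubiquitin-rhodamine 110 by 0.05 nM USP1/UAF1 was followed as fluorescence (Ex480/Em540, kinetic, 30 min) in Tris-HCl pH 7.8 buffer with EDTA, BSA, DTT and Tween-20. Compounds, top 10 μM, were preincubated with enzyme 10 min; % inhibition against no-enzyme and DMSO wells gave four-parameter IC50s.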

Setting [6] is: pH 2, aqueous buffer, PBS pH 2.0, 25° C., read-out: Solubility at pH 2.0.
Setting [7] is: pH 7.4, aqueous buffer, PBS pH 7.4, 25° C., read-out: Solubility at pH 7.4.

Chain of USP1/UAF1 enzyme (O94782 whole entry): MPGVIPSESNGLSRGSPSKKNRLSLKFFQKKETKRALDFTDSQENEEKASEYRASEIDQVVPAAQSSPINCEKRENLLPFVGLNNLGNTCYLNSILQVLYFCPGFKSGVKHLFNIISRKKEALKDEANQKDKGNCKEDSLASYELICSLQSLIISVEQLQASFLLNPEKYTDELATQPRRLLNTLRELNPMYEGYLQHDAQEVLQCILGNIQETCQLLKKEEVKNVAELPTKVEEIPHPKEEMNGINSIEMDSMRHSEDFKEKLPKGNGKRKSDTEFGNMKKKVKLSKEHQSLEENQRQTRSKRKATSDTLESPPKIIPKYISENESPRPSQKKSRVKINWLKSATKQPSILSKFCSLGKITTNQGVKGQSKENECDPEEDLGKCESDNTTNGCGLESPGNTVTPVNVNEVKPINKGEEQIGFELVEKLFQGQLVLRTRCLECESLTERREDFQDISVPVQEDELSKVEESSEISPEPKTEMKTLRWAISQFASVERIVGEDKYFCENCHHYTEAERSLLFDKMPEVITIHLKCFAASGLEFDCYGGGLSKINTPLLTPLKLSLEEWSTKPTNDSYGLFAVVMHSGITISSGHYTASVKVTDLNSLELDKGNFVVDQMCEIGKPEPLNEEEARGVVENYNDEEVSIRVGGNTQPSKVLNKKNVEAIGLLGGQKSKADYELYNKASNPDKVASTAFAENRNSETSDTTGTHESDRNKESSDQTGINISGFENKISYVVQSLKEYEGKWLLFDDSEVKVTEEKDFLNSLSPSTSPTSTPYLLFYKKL
Chain of USP1/UAF1 enzyme (Q8TAF3 whole entry partner): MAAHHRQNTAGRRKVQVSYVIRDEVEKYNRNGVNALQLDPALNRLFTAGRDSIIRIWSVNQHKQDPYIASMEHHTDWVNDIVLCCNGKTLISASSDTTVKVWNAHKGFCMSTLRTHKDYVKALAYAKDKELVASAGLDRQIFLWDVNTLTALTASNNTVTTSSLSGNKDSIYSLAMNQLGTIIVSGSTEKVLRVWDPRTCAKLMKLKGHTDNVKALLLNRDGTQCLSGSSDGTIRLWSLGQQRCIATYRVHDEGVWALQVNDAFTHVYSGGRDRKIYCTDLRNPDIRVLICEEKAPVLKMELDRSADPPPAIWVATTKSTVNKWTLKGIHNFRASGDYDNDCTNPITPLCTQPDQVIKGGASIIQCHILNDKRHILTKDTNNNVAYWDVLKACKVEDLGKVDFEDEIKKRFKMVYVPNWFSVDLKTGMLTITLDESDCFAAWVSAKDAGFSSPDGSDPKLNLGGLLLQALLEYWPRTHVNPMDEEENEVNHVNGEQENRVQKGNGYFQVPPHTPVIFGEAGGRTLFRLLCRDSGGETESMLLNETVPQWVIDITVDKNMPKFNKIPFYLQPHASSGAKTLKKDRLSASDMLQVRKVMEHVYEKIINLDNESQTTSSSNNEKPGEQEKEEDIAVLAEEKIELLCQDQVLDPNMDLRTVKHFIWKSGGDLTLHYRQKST

As to `COc1ncnc(C2CC2)c1-c1nc2n(Cc3ccc(-c4nc(C(F)(F)F)cn4C(C)C)c(F)c3OC)c(=O)ccn2n1` [Example 346, 2-(4-cyclopropyl-6-methoxypyrimidin-5-yl)-4-(3-fluoro-4-(1-isopropyl-4-(trifluoromethyl)-1H-imidazol-2-yl)-2-methoxybenzyl)-[1,2,4]triazolo[1,5-a]pyrimidin-5(4H)-one], the IC50 in data set [1] and in data set [5] was under 100 nM each time. In addition, the half-life at 1 μM in data set [2] and in data set [3] was over 25 min throughout. Besides, the solubility at 24 h in data set [4] (setting [6]) and in data set [4] (setting [7]) was under 10 µM in each case.
In the case of `CCn1cc(C(F)(F)F)nc1-c1ccc(CN2C(=O)C(C)Cn3nc(-c4c(OC)ncnc4C4CC4)nc32)cc1F` (stereo not drawn) [Example 347, 2-(4-cyclopropyl-6-methoxypyrimidin-5-yl)-4-(4-(1-ethyl-4-(trifluoromethyl)-1H-imidazol-2-yl)-3-fluorobenzyl)-6-methyl-6,7-dihydro-[1,2,4]triazolo[1,5-α]pyrimidin-5(4H)-one], the IC50 in data set [1] and in data set [5] was under 100 nM in each case. For the same compound, the half-life at 1 μM in data set [2] and in data set [3] was over 25 min throughout. Besides, the solubility at 24 h in data set [4] (setting [6]) and in data set [4] (setting [7]) was at least 10 µM in each case.
Take `CCn1cc(C(F)(F)F)nc1-c1ccc(CN2C(=O)C(C)Cn3nc(-c4c(Cl)cnn4C(C)C)nc32)cc1F` (stereo not drawn) [Example 350, 2-(4-chloro-1-isopropyl-1H-pyrazol-5-yl)-4-(4-(1-ethyl-4-(trifluoromethyl)-1H-imidazol-2-yl)-3-fluorobenzyl)-6-methyl-6,7-dihydro-[1,2,4]triazolo[1,5-a]pyrimidin-5(4H)-one]: the IC50 in data set [1] and in data set [5] was under 100 nM each time. The half-life at 1 μM in data set [2] and in data set [3] was over 25 min each time. The solubility at 24 h in data set [4] (setting [6]) and in data set [4] (setting [7]) was under 10 µM each time.
For `CCn1cc(C(F)(F)F)nc1-c1ccc(CN2C(=O)C(C)Cn3nc(-c4c(OC(F)F)ncnc4C4CC4)nc32)cc1F` (stereo not drawn) [Example 351, 2-(4-cyclopropyl-6-(difluoromethoxy)pyrimidin-5-yl)-4-(4-(1-ethyl-4-(trifluoromethyl)-1H-imidazol-2-yl)-3-fluorobenzyl)-6-methyl-6,7-dihydro-[1,2,4]triazolo[1,5-a]pyrimidin-5(4H)-one], the IC50 in data set [1] and in data set [5] was under 100 nM throughout. Moreover, the half-life at 1 μM in data set [2] and in data set [3] was over 25 min each time. The solubility at 24 h in data set [4] (setting [6]) and in data set [4] (setting [7]) was under 10 µM in each case.
On to `CCn1cc(C(F)(F)F)nc1-c1ccc(NC2c3cc(-c4c(Cl)cnn4C(C)C)nn3CCC2(C)C)cc1` (stereo not drawn) [Example 352, 2-(4-chloro-1-isopropyl-1H-pyrazol-5-yl)-N-(4-(1-ethyl-4-(trifluoromethyl)-1H-imidazol-2-yl)phenyl)-5,5-dimethyl-4,5,6,7-tetrahydropyrazolo[1,5-α]pyridin-4-amine], for which the half-maximal inhibitory concentration (IC50) in data set [1] and in data set [5] was under 100 nM each time. Also, the results for the half-life at 1 μM in data set [2] and in data set [3] were under 25 min and over 25 min, respectively. Also, the solubility at 24 h in data set [4] (setting [6]) and in data set [4] (setting [7]) was under 10 µM in each case.
In the case of `CCn1cc(C(F)(F)F)nc1-c1ccc(CN2CC(N)Cn3nc(-c4c(Cl)cnn4C(C)C)cc32)cc1F` (stereo not drawn) [Example 353, 2-(4-chloro-1-isopropyl-1H-pyrazol-5-yl)-4-(4-(1-ethyl-4-(trifluoromethyl)-1H-imidazol-2-yl)-3-fluorobenzyl)-4,5,6,7-tetrahydropyrazolo[1,5-α]pyrimidin-6-amine], the IC50 in data set [1] and in data set [5] was under 100 nM throughout. Moreover, the half-life at 1 μM in data set [2] and in data set [3] was under 25 min throughout. Further, the solubility at 24 h in data set [4] (setting [6]) was at least 10 µM; in data set [4] (setting [7]), under 10 µM.
`CCn1cc(C(F)(F)F)nc1-c1ccc(NC2CCCc3nn(-c4ccccc4C(C)C)cc32)cc1F` (stereo not drawn) [Example 355, N-(4-(1-ethyl-4-(trifluoromethyl)-1H-imidazol-2-yl)-3-fluorophenyl)-2-(2-isopropylphenyl)-4,5,6,7-tetrahydro-2H-indazol-4-amine]: the IC50 in data set [1] was 100 to 500 nM; in data set [5], under 100 nM. The half-life at 1 μM in data set [2] and in data set [3] was under 25 min throughout. The solubility at 24 h in data set [4] (setting [6]) and in data set [4] (setting [7]) was under 10 µM each time.
Take `CCn1cc(C(F)(F)F)nc1-c1ccc(NC2CCCCn3nc(-c4c(Cl)cnn4C(C)C)cc32)cc1` (stereo not drawn) [Example 357, 2-(4-chloro-1-isopropyl-1H-pyrazol-5-yl)-N-(4-(1-ethyl-4-(trifluoromethyl)-1H-imidazol-2-yl)phenyl)-5,6,7,8-tetrahydro-4H-pyrazolo[1,5-α]azepin-4-amine]: the IC50 in data set [1] and in data set [5] was under 100 nM throughout. Further, the half-life at 1 μM in data set [2] and in data set [3] was under 25 min each time. Moreover, the solubility at 24 h in data set [4] (setting [6]) and in data set [4] (setting [7]) was under 10 µM each time.
As to `CCn1cc(C(F)(F)F)nc1-c1ccc(OC2CCCCn3nc(-c4c(Cl)cnn4C(C)C)cc32)cc1` (stereo not drawn) [Example 358, 2-(4-chloro-1-isopropyl-1H-pyrazol-5-yl)-4-(4-(1-ethyl-4-(trifluoromethyl)-1H-imidazol-2-yl)phenoxy)-5,6,7,8-tetrahydro-4H-pyrazolo[1,5-α]azepine], the IC50 in data set [1] and in data set [5] was under 100 nM in each case. Further, the half-life at 1 μM in data set [2] is under 25 min; in data set [3] it was over 25 min. Moreover, the solubility at 24 h in data set [4] (setting [6]) and in data set [4] (setting [7]) was under 10 µM each time.
Regarding `CCn1cc(C(F)(F)F)nc1-c1ccc(CC2c3cc(-c4c(Cl)cnn4C(C)C)nn3CCN2C)cc1` (stereo not drawn) [Example 360, 2-(4-chloro-1-isopropyl-1H-pyrazol-5-yl)-4-(4-(1-ethyl-4-(trifluoromethyl)-1H-imidazol-2-yl)benzyl)-5-methyl-4,5,6,7-tetrahydropyrazolo[1,5-α]pyrazine], the IC50 in data set [1] and in data set [5] was under 100 nM throughout. The half-life at 1 μM in data set [2] and in data set [3] was under 25 min throughout. Also, the solubility at 24 h was at least 10 µM in data set [4] (setting [6]) and under 10 µM in data set [4] (setting [7]).
For `CCn1cc(C(F)(F)F)nc1-c1ccc(CC2c3cc(-c4c(OC)ncnc4C4CC4)nn3CCN2C)cc1` (stereo not drawn) [Example 362, 2-(4-cyclopropyl-6-methoxypyrimidin-5-yl)-4-(4-(1-ethyl-4-(trifluoromethyl)-1H-imidazol-2-yl)benzyl)-5-methyl-4,5,6,7-tetrahydropyrazolo[1,5-a]pyrazine], the IC50 in data set [1] is 100 to 500 nM; in data set [5], under 100 nM. In addition, the half-life at 1 μM in data set [2] and in data set [3] was under 25 min throughout. In addition, the solubility at 24 h in data set [4] (setting [6]) and in data set [4] (setting [7]) was at least 10 µM throughout.
For `CCn1cc(C(F)(F)F)nc1-c1ccc(CN2C(=O)CCn3nc(-c4c(OC(F)F)ncnc4C4CC4)nc32)cc1` [Example 364, 2-(4-cyclopropyl-6-(difluoromethoxy)pyrimidin-5-yl)-4-(4-(1-ethyl-4-(trifluoromethyl)-1H-imidazol-2-yl)benzyl)-6,7-dihydro-[1,2,4]triazolo[1,5-α]pyrimidin-5(4H)-one], the IC50 in data set [1] and in data set [5] was under 100 nM throughout. The half-life at 1 μM in data set [2] and in data set [3] was over 25 min in each case. Moreover, the solubility at 24 h in data set [4] (setting [6]) and in data set [4] (setting [7]) was under 10 µM throughout.
Consider `COc1c(CN2C(=O)CCn3nc(-c4c(OC(F)F)ncnc4C4CC4)nc32)ccc(-c2nc(C(F)(F)F)cn2C(C)C)c1F` [Example 365, 2-(4-cyclopropyl-6-(difluoromethoxy)pyrimidin-5-yl)-4-(3-fluoro-4-(1-isopropyl-4-(trifluoromethyl)-1H-imidazol-2-yl)-2-methoxybenzyl)-6,7-dihydro-[1,2,4]triazolo[1,5-a]pyrimidin-5(4H)-one], for which the IC50 in data set [1] and in data set [5] was under 100 nM throughout. Besides, the half-life at 1 μM in data set [2] and in data set [3] was over 25 min throughout. Further, the solubility at 24 h in data set [4] (setting [6]) and in data set [4] (setting [7]) was under 10 µM throughout.
As for `CCn1cc(C(F)(F)F)nc1-c1ccc(CN2C(=O)CCn3nc(-c4c(OC(F)F)ncnc4C4CC4)nc32)cc1F` [Example 370, 2-(4-cyclopropyl-6-(difluoromethoxy)pyrimidin-5-yl)-4-(4-(1-ethyl-4-(trifluoromethyl)-1H-imidazol-2-yl)-3-fluorobenzyl)-6,7-dihydro-[1,2,4]triazolo[1,5-a]pyrimidin-5(4H)-one], the IC50 in data set [1] and in data set [5] was under 100 nM throughout. In addition, the half-life at 1 μM in data set [2] and in data set [3] was over 25 min throughout. For the same compound, the solubility at 24 h in data set [4] (setting [6]) and in data set [4] (setting [7]) was under 10 µM in each case.

What is called IC50 is the concentration that gives 50% inhibition. What is called half-life is how long it takes for the measured level to halve. The term solubility denotes how much of the substance goes into solution per volume.
